For 2 compounds, EC50 results are on record in patent publication US12139520B2 (priority 2020, dated 2024).

One assay concerns the target T1, hAMY3 receptor (Homo sapiens, UniProt O60896+P30988).
T1 sequence (P30988 25-474): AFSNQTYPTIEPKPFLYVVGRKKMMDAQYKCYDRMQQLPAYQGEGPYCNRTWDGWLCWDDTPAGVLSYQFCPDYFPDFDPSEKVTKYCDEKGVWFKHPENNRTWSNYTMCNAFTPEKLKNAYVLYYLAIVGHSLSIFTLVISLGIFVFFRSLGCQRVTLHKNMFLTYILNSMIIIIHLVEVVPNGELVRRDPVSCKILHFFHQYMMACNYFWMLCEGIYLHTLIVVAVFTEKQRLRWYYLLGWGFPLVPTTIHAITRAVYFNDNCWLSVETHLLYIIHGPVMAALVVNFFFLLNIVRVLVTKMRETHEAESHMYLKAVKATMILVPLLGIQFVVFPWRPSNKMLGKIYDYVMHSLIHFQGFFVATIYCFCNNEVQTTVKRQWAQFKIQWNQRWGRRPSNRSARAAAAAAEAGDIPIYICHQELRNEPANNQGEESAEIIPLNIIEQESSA
T1 sequence (O60896 24-148 partner): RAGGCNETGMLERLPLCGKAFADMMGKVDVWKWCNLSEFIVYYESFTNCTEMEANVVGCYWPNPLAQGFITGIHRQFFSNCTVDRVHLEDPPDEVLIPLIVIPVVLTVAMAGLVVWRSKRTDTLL
The assay can be described thus: cAMP assay for in vitro receptor activation, hAMY3-R. Format: cell-based. The settings on record: cAMP assay, hAMY3 receptor; read-out: hAMY3R EC50. The gist of the method: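 Graded compound concentrations were applied for 30 min at room temperature to stably hAMY3-expressing cells in DPBS, 0.05% casein, 0.5 mM IBMX; cAMP detected by TR-FRET.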

Another assay has as its target hAM1 receptor (Homo sapiens, UniProt O60895+Q16602). The assay can be described thus: cAMP assay for in vitro receptor activation, hAM1-R. The settings on record: cAMP assay, hAM1 receptor; read-out: hAM1R EC50. Format: cell-based. How it is done: General Protocols for cAMP Assays for Measuring In Vitro Receptor Activation
Cells stably overexpressing the hAM1 receptor were obtained from Ogeda (now Astellas Pharma), sub-cloned and a monoclonal cell-line with an appropriate assay-window was expanded, aliquoted and frozen. An aliquot was thawed and plated in DPBS with 0.05% casein and 0.5 mM IBMX as 8000 cells/well in a 384-well format.

Numbered stars: 1 amine (or outer) side, 2 acyl side, 3 side chain; on linkers, the order of the positions; unused ones are H or OH. Bridge positions count the residues as written; N and C are the ends. Square brackets hold non-standard residues; d marks the D form. Side chains are listed from the residue outwards. Peptide text beside a SMILES is read from it. * marks the point of attachment. C20 diacid = O=C(O)CCCCCCCCCCCCCCCCCCC(=O)*; γGlu = O=C(O)[C@H](CCC(=O)[*:2])N[*:1]; Hyp = O=C(O)[C@@H]1C[C@@H](O)CN1; AEEA = NCCOCCOCC(=O)O

Chain of hAM1 receptor (Q16602 23-461): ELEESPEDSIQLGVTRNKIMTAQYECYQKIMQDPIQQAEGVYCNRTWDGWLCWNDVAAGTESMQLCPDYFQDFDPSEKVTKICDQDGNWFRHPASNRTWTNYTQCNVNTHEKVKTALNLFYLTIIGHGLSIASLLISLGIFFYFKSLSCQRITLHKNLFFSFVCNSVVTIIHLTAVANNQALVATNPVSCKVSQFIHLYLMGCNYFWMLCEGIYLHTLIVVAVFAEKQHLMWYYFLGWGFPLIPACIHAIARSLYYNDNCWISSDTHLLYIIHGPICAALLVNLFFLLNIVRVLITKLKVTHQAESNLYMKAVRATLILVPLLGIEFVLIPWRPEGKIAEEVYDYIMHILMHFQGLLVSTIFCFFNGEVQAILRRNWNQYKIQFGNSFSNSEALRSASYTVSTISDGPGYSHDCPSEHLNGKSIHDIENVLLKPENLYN
Chain of hAM1 receptor (O60895 43-175 partner): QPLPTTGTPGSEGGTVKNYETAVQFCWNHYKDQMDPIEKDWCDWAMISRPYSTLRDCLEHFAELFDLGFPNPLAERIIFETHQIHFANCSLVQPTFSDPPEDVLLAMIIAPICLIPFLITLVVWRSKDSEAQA

As to `CC[C@H](C)[C@H](NC(=O)[C@H](CCC(N)=O)NC(=O)[C@H](CCC(=O)O)NC(=O)[C@H](C)NC(=O)[C@H](CC(C)C)NC(=O)[C@H](CCCNC(=N)N)NC(=O)[C@H](CCC(N)=O)NC(=O)[C@@H](NC(=O)[C@@H](NC(=O)[C@@H]1CSSC[C@H](NC(=O)[C@@H](N)CCCCN)C(=O)N[C@@H](CC(N)=O)C(=O)N[C@@H]([C@@H](C)O)C(=O)N[C@@H](C)C(=O)N[C@@H]([C@@H](C)O)C(=O)N1)[C@@H](C)O)C(C)C)C(=O)N[C@@H](Cc1ccc(O)cc1)C(=O)N[C@@H](CCC(N)=O)C(=O)N[C@@H](Cc1ccccc1)C(=O)N[C@H](C(=O)N[C@@H](CC(=O)O)C(=O)N[C@@H](CCCCN)C(=O)N[C@@H](CC(=O)O)C(=O)N[C@@H](CCCCN)C(=O)N[C@@H](CCCCNC(=O)COCCOCCNC(=O)COCCOCCNC(=O)CC[C@H](NC(=O)CCCCCCCCCCCCCCCCCCC(=O)O)C(=O)O)C(=O)N[C@@H](CC(N)=O)C(=O)N[C@H](C(=O)N[C@@H](C)C(=O)N1CCC[C@H]1C(=O)N1CCC[C@H]1C(=O)N[C@H](C(=O)N[C@@H](CC(N)=O)C(=O)N[C@H](C(=O)NCC(=O)N[C@@H](CO)C(=O)N[C@@H](CC(N)=O)C(=O)NCC(=O)N1C[C@H](O)C[C@H]1C(N)=O)C(C)C)[C@@H](C)O)C(C)C)[C@@H](C)O` [compound 40] (H-KCNTATCTVQRLAEQIYQFTDKDKK([AEEA-AEEA-γGlu-C20 diacid])NVAPPTNVGSNG[Hyp]-NH2; disulfide 2-7; N-terminus assumed), the EC50 at hAMY3 receptor is 0.01 nM; on hAM1 receptor, greater than 5000 nM.
The matching figures for `CC[C@H](C)[C@H](NC(=O)[C@H](CCC(N)=O)NC(=O)[C@H](CC(=O)O)NC(=O)[C@H](C)NC(=O)[C@H](CC(C)C)NC(=O)[C@H](CCCNC(=N)N)NC(=O)[C@H](C)NC(=O)[C@@H](NC(=O)[C@@H](NC(=O)[C@@H]1CSSC[C@H](NC(=O)[C@@H](N)CCCCN)C(=O)N[C@@H](CC(N)=O)C(=O)N[C@@H]([C@@H](C)O)C(=O)N[C@@H](CO)C(=O)N[C@@H]([C@@H](C)O)C(=O)N1)[C@@H](C)O)C(C)C)C(=O)N[C@H](C(=O)N[C@@H](CCC(N)=O)C(=O)N[C@@H](Cc1ccccc1)C(=O)N[C@@H](CO)C(=O)N[C@@H](CC(=O)O)C(=O)N[C@@H](CCCCN)C(=O)N[C@@H](CC(=O)O)C(=O)N[C@@H](CCCCN)C(=O)N[C@@H](C)C(=O)N[C@@H](CC(N)=O)C(=O)N[C@H](C(=O)N[C@@H](CO)C(=O)N1CCC[C@H]1C(=O)N1CCC[C@H]1C(=O)N[C@H](C(=O)N[C@@H](CCC(=O)O)C(=O)N[C@H](C(=O)NCC(=O)N1CCC[C@H]1C(=O)N[C@@H](CC(N)=O)C(=O)N[C@@H](CO)C(=O)N1C[C@H](O)C[C@H]1C(N)=O)C(C)C)[C@@H](C)O)C(C)C)[C@@H](C)O` [compound 15] (H-KCNTSTCTVARLADQITQFSDKDKANVSPPTEVGPNS[Hyp]-NH2; disulfide 2-7; N-terminus assumed): 0.007 nM and greater than 5000 nM.
